Oligonucleotides are given in HELM: sugar(base)linkage, 5' to 3'; d 2'-deoxyribose, r ribose, m 2'-O-methylribose, p phosphate. ss, as = sense and antisense strand

Results on 20 substances are retold here after the OligoGym collection.
Note: test concentration or dose not given here.

The target in the series is Mmp7 (rat). Kind of series: reporter assay of Huesken 2005. As to conditions: siRNA. Background: In a reporter assay the amount or activity of a reporter protein is the signal.
“RNA1{r(G)p.r(A)p.r(U)p.r(G)p.r(U)p.r(U)p.r(G)p.r(C)p.r(A)p.r(G)p.r(A)p.r(A)p.r(U)p.r(U)p.r(C)p.r(U)p.r(C)p.r(A)p.r(C)p.d(T)p.d(T)}|RNA2{r(G)p.r(U)p.r(G)p.r(A)p.r(G)p.r(A)p.r(A)p.r(U)p.r(U)p.r(C)p.r(U)p.r(G)p.r(C)p.r(A)p.r(A)p.r(C)p.r(A)p.r(U)p.r(C)p.d(T)p.d(G)}$$$RNA1{StrandType:ss}|RNA2{StrandType:as}$”: the normalised inhibition (eCFP-eYFP dual reporter) was 119%.

In the case of “RNA1{r(U)p.r(G)p.r(A)p.r(G)p.r(G)p.r(G)p.r(A)p.r(A)p.r(A)p.r(U)p.r(G)p.r(C)p.r(A)p.r(G)p.r(A)p.r(A)p.r(G)p.r(U)p.r(U)p.d(T)p.d(T)}|RNA2{r(A)p.r(A)p.r(C)p.r(U)p.r(U)p.r(C)p.r(U)p.r(G)p.r(C)p.r(A)p.r(U)p.r(U)p.r(U)p.r(C)p.r(C)p.r(C)p.r(U)p.r(C)p.r(A)p.d(G)p.d(T)}$$$RNA1{StrandType:ss}|RNA2{StrandType:as}$”, the normalised inhibition (eCFP-eYFP dual reporter) is 104%.

With “RNA1{r(U)p.r(A)p.r(C)p.r(C)p.r(U)p.r(U)p.r(C)p.r(A)p.r(C)p.r(G)p.r(A)p.r(C)p.r(U)p.r(C)p.r(U)p.r(A)p.r(A)p.r(A)p.r(A)p.d(T)p.d(T)}|RNA2{r(U)p.r(U)p.r(U)p.r(U)p.r(A)p.r(G)p.r(A)p.r(G)p.r(U)p.r(C)p.r(G)p.r(U)p.r(G)p.r(A)p.r(A)p.r(G)p.r(G)p.r(U)p.r(A)p.d(A)p.d(A)}$$$RNA1{StrandType:ss}|RNA2{StrandType:as}$”, the normalised inhibition (eCFP-eYFP dual reporter) worked out at 110%.

For the substance “RNA1{r(A)p.r(G)p.r(A)p.r(A)p.r(U)p.r(U)p.r(C)p.r(U)p.r(C)p.r(A)p.r(C)p.r(U)p.r(A)p.r(A)p.r(U)p.r(G)p.r(C)p.r(C)p.r(A)p.d(T)p.d(T)}|RNA2{r(U)p.r(G)p.r(G)p.r(C)p.r(A)p.r(U)p.r(U)p.r(A)p.r(G)p.r(U)p.r(G)p.r(A)p.r(G)p.r(A)p.r(A)p.r(U)p.r(U)p.r(C)p.r(U)p.d(G)p.d(C)}$$$RNA1{StrandType:ss}|RNA2{StrandType:as}$”, the normalised inhibition (eCFP-eYFP dual reporter) was 107%.

For “RNA1{r(G)p.r(G)p.r(U)p.r(C)p.r(U)p.r(G)p.r(G)p.r(G)p.r(U)p.r(C)p.r(A)p.r(C)p.r(U)p.r(C)p.r(U)p.r(U)p.r(C)p.r(U)p.r(G)p.d(T)p.d(T)}|RNA2{r(C)p.r(A)p.r(G)p.r(A)p.r(A)p.r(G)p.r(A)p.r(G)p.r(U)p.r(G)p.r(A)p.r(C)p.r(C)p.r(C)p.r(A)p.r(G)p.r(A)p.r(C)p.r(C)p.d(C)p.d(A)}$$$RNA1{StrandType:ss}|RNA2{StrandType:as}$”, the normalised inhibition (eCFP-eYFP dual reporter) turned out to be 73.8%.

Take “RNA1{r(G)p.r(A)p.r(U)p.r(G)p.r(G)p.r(U)p.r(G)p.r(A)p.r(G)p.r(G)p.r(A)p.r(C)p.r(U)p.r(C)p.r(A)p.r(G)p.r(G)p.r(C)p.r(G)p.d(T)p.d(T)}|RNA2{r(C)p.r(G)p.r(C)p.r(C)p.r(U)p.r(G)p.r(A)p.r(G)p.r(U)p.r(C)p.r(C)p.r(U)p.r(C)p.r(A)p.r(C)p.r(C)p.r(A)p.r(U)p.r(C)p.d(C)p.d(G)}$$$RNA1{StrandType:ss}|RNA2{StrandType:as}$”: the normalised inhibition (eCFP-eYFP dual reporter) was determined as 61.8%.

For the substance “RNA1{r(A)p.r(G)p.r(U)p.r(C)p.r(U)p.r(U)p.r(A)p.r(C)p.r(A)p.r(A)p.r(A)p.r(G)p.r(G)p.r(A)p.r(C)p.r(G)p.r(A)p.r(C)p.r(A)p.d(T)p.d(T)}|RNA2{r(U)p.r(G)p.r(U)p.r(C)p.r(G)p.r(U)p.r(C)p.r(C)p.r(U)p.r(U)p.r(U)p.r(G)p.r(U)p.r(A)p.r(A)p.r(G)p.r(A)p.r(C)p.r(U)p.d(G)p.d(A)}$$$RNA1{StrandType:ss}|RNA2{StrandType:as}$”, the normalised inhibition (eCFP-eYFP dual reporter) came to 98.7%.

As for “RNA1{r(C)p.r(U)p.r(U)p.r(C)p.r(C)p.r(C)p.r(A)p.r(U)p.r(U)p.r(U)p.r(G)p.r(A)p.r(U)p.r(G)p.r(G)p.r(G)p.r(C)p.r(C)p.r(A)p.d(T)p.d(T)}|RNA2{r(U)p.r(G)p.r(G)p.r(C)p.r(C)p.r(C)p.r(A)p.r(U)p.r(C)p.r(A)p.r(A)p.r(A)p.r(U)p.r(G)p.r(G)p.r(G)p.r(A)p.r(A)p.r(G)p.d(T)p.d(T)}$$$RNA1{StrandType:ss}|RNA2{StrandType:as}$”, the normalised inhibition (eCFP-eYFP dual reporter) stood at 85%.

As for “RNA1{r(U)p.r(C)p.r(A)p.r(U)p.r(U)p.r(C)p.r(A)p.r(G)p.r(A)p.r(A)p.r(G)p.r(A)p.r(C)p.r(U)p.r(U)p.r(C)p.r(A)p.r(G)p.r(U)p.d(T)p.d(T)}|RNA2{r(A)p.r(C)p.r(U)p.r(G)p.r(A)p.r(A)p.r(G)p.r(U)p.r(C)p.r(U)p.r(U)p.r(C)p.r(U)p.r(G)p.r(A)p.r(A)p.r(U)p.r(G)p.r(A)p.d(T)p.d(C)}$$$RNA1{StrandType:ss}|RNA2{StrandType:as}$”, the normalised inhibition (eCFP-eYFP dual reporter) was 54.7%.

As for “RNA1{r(A)p.r(U)p.r(G)p.r(G)p.r(U)p.r(G)p.r(A)p.r(G)p.r(G)p.r(A)p.r(C)p.r(U)p.r(C)p.r(A)p.r(G)p.r(G)p.r(C)p.r(G)p.r(U)p.d(T)p.d(T)}|RNA2{r(A)p.r(C)p.r(G)p.r(C)p.r(C)p.r(U)p.r(G)p.r(A)p.r(G)p.r(U)p.r(C)p.r(C)p.r(U)p.r(C)p.r(A)p.r(C)p.r(C)p.r(A)p.r(U)p.d(C)p.d(C)}$$$RNA1{StrandType:ss}|RNA2{StrandType:as}$”, the normalised inhibition (eCFP-eYFP dual reporter) is 65.7%.

For “RNA1{r(U)p.r(U)p.r(A)p.r(C)p.r(C)p.r(U)p.r(U)p.r(C)p.r(A)p.r(C)p.r(G)p.r(A)p.r(C)p.r(U)p.r(C)p.r(U)p.r(A)p.r(A)p.r(A)p.d(T)p.d(T)}|RNA2{r(U)p.r(U)p.r(U)p.r(A)p.r(G)p.r(A)p.r(G)p.r(U)p.r(C)p.r(G)p.r(U)p.r(G)p.r(A)p.r(A)p.r(G)p.r(G)p.r(U)p.r(A)p.r(A)p.d(A)p.d(A)}$$$RNA1{StrandType:ss}|RNA2{StrandType:as}$”, the normalised inhibition (eCFP-eYFP dual reporter) worked out at 131%.

Take “RNA1{r(G)p.r(G)p.r(A)p.r(A)p.r(A)p.r(U)p.r(U)p.r(U)p.r(U)p.r(A)p.r(C)p.r(C)p.r(U)p.r(U)p.r(C)p.r(A)p.r(C)p.r(G)p.r(A)p.d(T)p.d(T)}|RNA2{r(U)p.r(C)p.r(G)p.r(U)p.r(G)p.r(A)p.r(A)p.r(G)p.r(G)p.r(U)p.r(A)p.r(A)p.r(A)p.r(A)p.r(U)p.r(U)p.r(U)p.r(C)p.r(C)p.d(T)p.d(A)}$$$RNA1{StrandType:ss}|RNA2{StrandType:as}$”: the normalised inhibition (eCFP-eYFP dual reporter) came out at 127%.

As for “RNA1{r(A)p.r(A)p.r(G)p.r(U)p.r(U)p.r(C)p.r(U)p.r(U)p.r(C)p.r(G)p.r(G)p.r(U)p.r(U)p.r(U)p.r(G)p.r(C)p.r(C)p.r(G)p.r(G)p.d(T)p.d(T)}|RNA2{r(C)p.r(C)p.r(G)p.r(G)p.r(C)p.r(A)p.r(A)p.r(A)p.r(C)p.r(C)p.r(G)p.r(A)p.r(A)p.r(G)p.r(A)p.r(A)p.r(C)p.r(U)p.r(U)p.d(C)p.d(T)}$$$RNA1{StrandType:ss}|RNA2{StrandType:as}$”, the normalised inhibition (eCFP-eYFP dual reporter) was 1.8%.

Turning to “RNA1{r(G)p.r(G)p.r(A)p.r(C)p.r(G)p.r(G)p.r(A)p.r(U)p.r(G)p.r(G)p.r(U)p.r(G)p.r(A)p.r(G)p.r(G)p.r(A)p.r(C)p.r(U)p.r(C)p.d(T)p.d(T)}|RNA2{r(G)p.r(A)p.r(G)p.r(U)p.r(C)p.r(C)p.r(U)p.r(C)p.r(A)p.r(C)p.r(C)p.r(A)p.r(U)p.r(C)p.r(C)p.r(G)p.r(U)p.r(C)p.r(C)p.d(A)p.d(G)}$$$RNA1{StrandType:ss}|RNA2{StrandType:as}$”, the normalised inhibition (eCFP-eYFP dual reporter) worked out at 81.1%.

For “RNA1{r(U)p.r(G)p.r(G)p.r(A)p.r(G)p.r(U)p.r(G)p.r(C)p.r(C)p.r(A)p.r(G)p.r(A)p.r(U)p.r(G)p.r(U)p.r(U)p.r(G)p.r(C)p.r(A)p.d(T)p.d(T)}|RNA2{r(U)p.r(G)p.r(C)p.r(A)p.r(A)p.r(C)p.r(A)p.r(U)p.r(C)p.r(U)p.r(G)p.r(G)p.r(C)p.r(A)p.r(C)p.r(U)p.r(C)p.r(C)p.r(A)p.d(C)p.d(A)}$$$RNA1{StrandType:ss}|RNA2{StrandType:as}$”, the normalised inhibition (eCFP-eYFP dual reporter) was 91.3%.

As for “RNA1{r(U)p.r(A)p.r(A)p.r(U)p.r(G)p.r(C)p.r(C)p.r(A)p.r(A)p.r(A)p.r(C)p.r(A)p.r(G)p.r(U)p.r(C)p.r(C)p.r(U)p.r(A)p.r(A)p.d(T)p.d(T)}|RNA2{r(U)p.r(U)p.r(A)p.r(G)p.r(G)p.r(A)p.r(C)p.r(U)p.r(G)p.r(U)p.r(U)p.r(U)p.r(G)p.r(G)p.r(C)p.r(A)p.r(U)p.r(U)p.r(A)p.d(G)p.d(T)}$$$RNA1{StrandType:ss}|RNA2{StrandType:as}$”, the normalised inhibition (eCFP-eYFP dual reporter) came to 105%.

Take “RNA1{r(A)p.r(A)p.r(U)p.r(U)p.r(U)p.r(U)p.r(A)p.r(C)p.r(C)p.r(U)p.r(U)p.r(C)p.r(A)p.r(C)p.r(G)p.r(A)p.r(C)p.r(U)p.r(C)p.d(T)p.d(T)}|RNA2{r(G)p.r(A)p.r(G)p.r(U)p.r(C)p.r(G)p.r(U)p.r(G)p.r(A)p.r(A)p.r(G)p.r(G)p.r(U)p.r(A)p.r(A)p.r(A)p.r(A)p.r(U)p.r(U)p.d(T)p.d(C)}$$$RNA1{StrandType:ss}|RNA2{StrandType:as}$”: the normalised inhibition (eCFP-eYFP dual reporter) came out at 76.1%.

For the substance “RNA1{r(A)p.r(C)p.r(A)p.r(G)p.r(U)p.r(C)p.r(C)p.r(U)p.r(A)p.r(A)p.r(G)p.r(U)p.r(G)p.r(G)p.r(C)p.r(A)p.r(U)p.r(U)p.r(C)p.d(T)p.d(T)}|RNA2{r(G)p.r(A)p.r(A)p.r(U)p.r(G)p.r(C)p.r(C)p.r(A)p.r(C)p.r(U)p.r(U)p.r(A)p.r(G)p.r(G)p.r(A)p.r(C)p.r(U)p.r(G)p.r(U)p.d(T)p.d(T)}$$$RNA1{StrandType:ss}|RNA2{StrandType:as}$”, the normalised inhibition (eCFP-eYFP dual reporter) was 65.7%.

As for “RNA1{r(A)p.r(U)p.r(U)p.r(U)p.r(G)p.r(A)p.r(U)p.r(G)p.r(G)p.r(G)p.r(C)p.r(C)p.r(A)p.r(G)p.r(G)p.r(A)p.r(A)p.r(A)p.r(C)p.d(T)p.d(T)}|RNA2{r(G)p.r(U)p.r(U)p.r(U)p.r(C)p.r(C)p.r(U)p.r(G)p.r(G)p.r(C)p.r(C)p.r(C)p.r(A)p.r(U)p.r(C)p.r(A)p.r(A)p.r(A)p.r(U)p.d(G)p.d(G)}$$$RNA1{StrandType:ss}|RNA2{StrandType:as}$”, the normalised inhibition (eCFP-eYFP dual reporter) came to 10.5%.

In the case of “RNA1{r(A)p.r(A)p.r(C)p.r(A)p.r(A)p.r(A)p.r(G)p.r(A)p.r(A)p.r(G)p.r(G)p.r(C)p.r(C)p.r(A)p.r(C)p.r(C)p.r(A)p.r(G)p.r(U)p.d(T)p.d(T)}|RNA2{r(A)p.r(C)p.r(U)p.r(G)p.r(G)p.r(U)p.r(G)p.r(G)p.r(C)p.r(C)p.r(U)p.r(U)p.r(C)p.r(U)p.r(U)p.r(U)p.r(G)p.r(U)p.r(U)p.d(T)p.d(T)}$$$RNA1{StrandType:ss}|RNA2{StrandType:as}$”, the normalised inhibition (eCFP-eYFP dual reporter) worked out at 87.1%.
